Laboratory results as given in PMC11672547, “Combination of Coevolutionary Information and Supervised Learning Enables Generation of Cyclic Peptide Inhibitors with Enhanced Potency from a Small Data Set” (ACS Central Science, 2024).
Read-outs that look alike come from different tables or passages of the source. One block for each compound: values may come before it. Numbered stars: 1 amine (or outer) side, 2 acyl side, 3 side chain; on linkers, the order of the positions; unused ones are H or OH. Bridge positions count the residues as written; N and C are the ends. Peptide text beside a SMILES is read from it. TBMB = c1c(C[*:1])cc(C[*:3])cc1C[*:2]

Legend:
Type in all cases: biochemical
[1] = biological target: T1, human urokinase-type plasminogen activator (huPA) (Homo sapiens, UniProt P00749); assay: huPA inhibition, fluorogenic enzyme activity assay (Z-Gly-Gly-Arg-AMC), Ki by Cheng-Prusoff; conditions: 25 °C
T1 construct: (UPA-LMW, Molecular Innovations, Novi, MI, USA) 1.5 nM; purchased Molecular Innovations UPA-LMW
Procedure: bicyclic peptides. The activity assay was performed by incubating […] huPA with 50 μM fluorogenic substrate Z-Gly-Gly-Arg-AMC (50 μM; Bachem, Bubendorf, Switzerland) and […]
NaCl, 10 mM MgCl2, 1mM CaCl2, 0.1% w/v BSA, 0.01% v/v Triton-X100 and 5% v/v DMSO.
The measurements were performed on a Tecan microplate reader (Tecan infinite 200 pro, Tecan Trading AG, Switzerland) using black microfluor 96-well plate Nunc MicroWell, (Thermo Fisher Scientific, Dreieich, Germany) The enzymatic reactions were performed at 25 °C for 30 min, under shacking with an excitation wavelength of 355 nm and an emission recording at 460 nm. The initial velocities were monitored as changes in fluorescence intensity. The sigmoidal curves were fitted to the data using the following non-linear regression equation for the inhibitory dose-response curves with variable slope (2): […]
where x is the peptide concentration, y is the residual percentage of protease activity and p is the hill slope. Half maximum inhibitory concentration (IC50) values were derived from the fitted curves from GraphPad Prism 8 8.0.0. software (GraphPad software, Inc., San Diego, California). The final Ki was subsequently determined using the Cheng-Prusoff equation (3): […]
where Km (115 μM) is the Michaelis constant for the hydrolysis of Z-Gly-Gly-Arg-AMC catalysed by huPA which has been determined by standard Michaelis-Menten equation.
Values were determined using either OriginPro 8G software (OriginLab Corporation, Northamppton, MA, USA) or GraphPad Prism 8.0.0. software (GraphPad software, Inc., San […]
Recombinant production of the catalytic domain of human urokinase-type […]
The low molecular weight (LMW) human urokinase-type plasminogen activator (huPA) comprising the truncated 23 amino acid peptide fragment of chain A (Lys136-Lys158 in […]

[2] = biological target: T2, human tPA (htPA) (Homo sapiens, UniProt P00750); assay: Specificity determination, residual protease activity (fluorogenic substrate); conditions: 25 °C, pH 7.4, Z-Gly-Gly-Arg-AMC 50 μM
T2 construct: purchased Molecular Innovations HTPATC
Procedure: (§1) 5% v/v DMSO. Final concentrations of serine proteases were the following: human uPA (UPA-LMW, Molecular Innovations, Novi, MI, USA) 1.5 nM, mouse uPA (MUPA-LMW, Molecular Innovations, Novi, MI, USA) 12 nM, human tPA (HTPATC; Molecular Innovations, Novi, MI, USA) 7.5 nM, mouse tPA (MTPA, Molecular Innovations, Novi, MI, USA) 6 nM, human trypsin (HTRYP, Molecular Innovations, Novi, MI, USA) 0.05 nM, human plasmin (HPLM, Molecular Innovations, Novi, MI, USA) 1.5 nM, human plasma kallikrein (IHPKA, Innovative Research, Novi, MI, USA) 0.5 nM, human thrombin (IHT, Innovative Research, Novi, MI, USA) 10 nM, and human factor XIIa (IHFXIIa, Innovative Research, Novi, MI, USA) 6 nM. Two-fold dilutions of UK970 bicyclic peptide inhibitor were prepared ranging from 1 mM to 125 nM for all the proteases. For human uPA an extra two-fold UK970 inhibitor dilution experiment was performed by using inhibitor concentrations ranging from 2000 nM to 0.12 nM. For the determination of the Ki inhibitory constants, the following fluorogenic substrates were used at final concentration of 50 μM: Z-Gly-Gly-Arg-AMC (for human uPA, murine uPA, human tPA, murine tPA, human trypsin, human thrombin and human factor XIIa; Bachem, Bubendorf, Switzerland), Z-Phe-Arg-AMC (for human plasma kallikrein; Bachem, Bubendorf, Switzerland) and H-D-Val-Leu-Lys-AMC (for human plasmin; Bachem, Bubendorf, Switzerland). The initial velocities were monitored as changes in fluorescence intensity during 30 min on a Tecan microplate reader (Tecan infinite 200 pro, Tecan Trading AG, Switzerland) using black microfluor 96-well plate Nunc MicroWell (Thermo Fisher Scientific, Dreieich, Germany). The enzymatic reactions were performed at 25 °C under shacking with an excitation wavelength of 355 nm and an emission recording at 460 nm.
(§2) Apparent equilibrium constants Kiapps values were determined by non-linear regression analyses of Vi/V0 versus [I]0 using equation (2). The final Kis were subsequently determined by correcting for the competitive effect of the substrate [S]0 using equation (3). The kinetic constants Kms for the hydrolysis of fluorogenic substrate, catalysed by each protease, were determined by standard Michaelis-Menten equation. Values were determined using either OriginPro 8G software (OriginLab Corporation, Northamppton, MA, USA) or GraphPad Prism 8.0.0. software (GraphPad software, Inc., San Diego, California). […]

[3] = biological target: T3, murine uPA (muPA) (Mus musculus, UniProt P06869); assay: as above; conditions: 25 °C, pH 7.4, Z-Gly-Gly-Arg-AMC 50 μM
T3 construct: mouse uPA (MUPA-LMW,; purchased Molecular Innovations MUPA-LMW
Procedure: as §1, §2

[4] = biological target: T4, human thrombin (Homo sapiens, UniProt P00734); assay: as above; conditions: 25 °C, pH 7.4, Z-Gly-Gly-Arg-AMC 50 μM
T4 construct: human thrombin (IHT, Innovative Research,; purchased Innovative Research IHT
Procedure: as §1, §2

[5] = biological target: T5, human factor XIIa (Homo sapiens, UniProt P00748); assay: as above; conditions: 25 °C, pH 7.4, Z-Gly-Gly-Arg-AMC 50 μM
T5 construct: human factor XIIa (IHFXIIa, Innovative Research,; purchased Innovative Research IHFXIIa
T5 sequence (P00748 373-615 limits assumed): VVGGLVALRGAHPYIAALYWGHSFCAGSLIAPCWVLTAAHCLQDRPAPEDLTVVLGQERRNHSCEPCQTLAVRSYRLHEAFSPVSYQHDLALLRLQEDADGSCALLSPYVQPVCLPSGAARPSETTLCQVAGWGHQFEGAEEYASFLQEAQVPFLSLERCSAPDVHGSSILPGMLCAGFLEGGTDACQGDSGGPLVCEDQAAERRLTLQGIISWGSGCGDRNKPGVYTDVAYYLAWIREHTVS
T5 sequence (P00748 20-372 partner limits assumed): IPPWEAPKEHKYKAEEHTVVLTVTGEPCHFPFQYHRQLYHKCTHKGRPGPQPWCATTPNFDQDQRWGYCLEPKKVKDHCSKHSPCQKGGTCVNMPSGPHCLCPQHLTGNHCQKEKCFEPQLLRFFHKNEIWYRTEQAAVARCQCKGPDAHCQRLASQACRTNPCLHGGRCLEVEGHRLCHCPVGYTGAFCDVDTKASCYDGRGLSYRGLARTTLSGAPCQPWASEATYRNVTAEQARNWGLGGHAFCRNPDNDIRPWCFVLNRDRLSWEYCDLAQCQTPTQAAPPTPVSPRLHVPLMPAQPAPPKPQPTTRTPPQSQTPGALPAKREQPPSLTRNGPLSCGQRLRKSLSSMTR
Procedure: as §1, §2

[6] = biological target: T6, human plasmin (Homo sapiens, UniProt P00747); assay: as above; conditions: 25 °C, pH 7.4, H-D-Val-Leu-Lys-AMC 50 μM
T6 construct: Bachem; purchased Molecular Innovations HPLM
Procedure: as §1, §2

[7] = biological target: T7, murine tPA (mtPA) (Mus musculus, UniProt P11214); assay: as above; conditions: 25 °C, pH 7.4, Z-Gly-Gly-Arg-AMC 50 μM
T7 construct: purchased Molecular Innovations MTPA
Procedure: as §1, §2

[8] = biological target: T8, human plasma kallikrein (Homo sapiens, UniProt P03952); assay: as above; conditions: 25 °C, pH 7.4, Z-Phe-Arg-AMC 50 μM
T8 construct: purchased Innovative Research IHPKA
Procedure: as §1, §2

[9] = pH 7.4, substrate 50 μM, mean ± S.E. of at least three measurements, read-out: Ki

T3 sequence (P06869 180-433 limits assumed): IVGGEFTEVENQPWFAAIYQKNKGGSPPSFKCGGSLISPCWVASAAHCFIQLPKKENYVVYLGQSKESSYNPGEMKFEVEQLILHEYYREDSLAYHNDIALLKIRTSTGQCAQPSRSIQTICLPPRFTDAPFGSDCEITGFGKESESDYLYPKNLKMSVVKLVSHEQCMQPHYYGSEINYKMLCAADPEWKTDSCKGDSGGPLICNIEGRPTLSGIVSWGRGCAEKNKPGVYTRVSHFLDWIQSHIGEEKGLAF
T3 sequence (P06869 157-178 partner limits assumed): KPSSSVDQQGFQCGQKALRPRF
T8 sequence (P03952 391-638 limits assumed): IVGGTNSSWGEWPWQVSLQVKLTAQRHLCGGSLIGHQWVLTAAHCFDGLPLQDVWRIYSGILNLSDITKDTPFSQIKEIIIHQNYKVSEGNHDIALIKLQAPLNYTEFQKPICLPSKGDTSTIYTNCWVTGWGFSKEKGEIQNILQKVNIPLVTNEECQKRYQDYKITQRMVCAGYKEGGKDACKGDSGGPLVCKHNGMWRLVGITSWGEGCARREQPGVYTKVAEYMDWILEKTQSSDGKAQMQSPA
T8 sequence (P03952 20-390 partner limits assumed): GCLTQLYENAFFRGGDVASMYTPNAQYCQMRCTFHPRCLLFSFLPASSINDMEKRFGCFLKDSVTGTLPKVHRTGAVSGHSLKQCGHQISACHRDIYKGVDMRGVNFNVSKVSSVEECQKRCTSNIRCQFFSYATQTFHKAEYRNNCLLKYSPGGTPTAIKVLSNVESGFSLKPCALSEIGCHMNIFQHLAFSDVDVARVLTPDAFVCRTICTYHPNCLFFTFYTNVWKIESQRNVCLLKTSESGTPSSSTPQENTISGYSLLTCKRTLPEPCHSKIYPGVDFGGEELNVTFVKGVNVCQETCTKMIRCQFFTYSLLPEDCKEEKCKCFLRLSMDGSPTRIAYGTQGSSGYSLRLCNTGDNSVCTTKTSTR
T6 sequence (P00747 581-810 limits assumed): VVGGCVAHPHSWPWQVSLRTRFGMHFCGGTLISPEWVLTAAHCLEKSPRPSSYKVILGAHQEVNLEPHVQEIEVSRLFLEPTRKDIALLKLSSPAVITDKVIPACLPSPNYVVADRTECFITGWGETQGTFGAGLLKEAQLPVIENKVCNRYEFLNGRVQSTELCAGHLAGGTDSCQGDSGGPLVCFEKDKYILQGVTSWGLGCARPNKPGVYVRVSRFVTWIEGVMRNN
T6 sequence (P00747 97-580 partner limits assumed): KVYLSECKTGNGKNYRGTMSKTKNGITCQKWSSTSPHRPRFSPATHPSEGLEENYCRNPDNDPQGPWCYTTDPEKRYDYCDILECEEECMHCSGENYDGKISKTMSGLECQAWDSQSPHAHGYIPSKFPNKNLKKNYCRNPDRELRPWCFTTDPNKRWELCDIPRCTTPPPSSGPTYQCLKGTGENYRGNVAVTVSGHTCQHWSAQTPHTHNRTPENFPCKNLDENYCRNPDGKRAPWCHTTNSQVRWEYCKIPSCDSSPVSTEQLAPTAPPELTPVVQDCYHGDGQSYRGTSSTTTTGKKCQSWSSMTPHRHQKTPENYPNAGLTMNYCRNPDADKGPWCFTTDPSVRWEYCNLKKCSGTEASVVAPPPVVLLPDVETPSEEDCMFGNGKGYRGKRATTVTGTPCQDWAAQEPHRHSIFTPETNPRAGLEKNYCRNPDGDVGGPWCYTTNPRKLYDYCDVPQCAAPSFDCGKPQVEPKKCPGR
T7 sequence (P11214 33-559): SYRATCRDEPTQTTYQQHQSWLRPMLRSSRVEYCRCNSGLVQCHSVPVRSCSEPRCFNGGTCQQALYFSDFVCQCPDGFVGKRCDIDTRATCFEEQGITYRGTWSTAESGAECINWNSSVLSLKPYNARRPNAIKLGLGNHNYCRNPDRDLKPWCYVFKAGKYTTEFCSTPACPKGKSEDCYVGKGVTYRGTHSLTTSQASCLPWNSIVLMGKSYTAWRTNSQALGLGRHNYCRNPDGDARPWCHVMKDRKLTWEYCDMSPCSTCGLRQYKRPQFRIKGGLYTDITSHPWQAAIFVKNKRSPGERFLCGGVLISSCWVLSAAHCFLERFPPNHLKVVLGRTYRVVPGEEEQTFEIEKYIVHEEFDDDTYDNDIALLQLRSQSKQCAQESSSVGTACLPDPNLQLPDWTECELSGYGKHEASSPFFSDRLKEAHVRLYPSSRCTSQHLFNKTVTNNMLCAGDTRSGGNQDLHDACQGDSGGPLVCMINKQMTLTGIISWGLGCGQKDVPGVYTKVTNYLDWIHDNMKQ
T2 sequence (P00750 311-562 limits assumed): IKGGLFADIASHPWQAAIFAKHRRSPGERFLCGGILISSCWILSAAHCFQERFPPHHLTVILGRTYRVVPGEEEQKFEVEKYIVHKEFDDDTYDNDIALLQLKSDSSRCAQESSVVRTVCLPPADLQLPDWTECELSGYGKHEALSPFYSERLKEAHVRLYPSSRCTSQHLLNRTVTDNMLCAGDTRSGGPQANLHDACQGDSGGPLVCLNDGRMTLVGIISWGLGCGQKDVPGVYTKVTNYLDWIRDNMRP
T2 sequence (P00750 36-310 partner limits assumed): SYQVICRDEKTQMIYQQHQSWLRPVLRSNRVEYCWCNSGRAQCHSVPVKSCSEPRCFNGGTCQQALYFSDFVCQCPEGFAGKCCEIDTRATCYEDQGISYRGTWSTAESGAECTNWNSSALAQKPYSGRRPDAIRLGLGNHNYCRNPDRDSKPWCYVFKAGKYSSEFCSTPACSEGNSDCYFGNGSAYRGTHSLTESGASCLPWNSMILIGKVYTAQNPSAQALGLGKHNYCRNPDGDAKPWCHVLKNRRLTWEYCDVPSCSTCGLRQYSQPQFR

Structure (SMILES): CC(C)[C@@H]1NC(=O)CNC(=O)[C@@H]2CSCc3cc(cc(c3)CSC[C@@H](C(=O)NCC(N)=O)NC(=O)[C@H](CO)NC(=O)CNC(=O)[C@@H]3CCCN3C(=O)[C@H](CC(=O)O)NC1=O)CSC[C@H](NC(=O)[C@H](C)N)C(=O)N[C@@H](CC(N)=O)C(=O)N[C@@H](CO)C(=O)N[C@@H](CCCCN)C(=O)N[C@@H](Cc1ccccc1)C(=O)N[C@@H](CO)C(=O)NCC(=O)N2 [UK974] (H-ACNSKFSGCGVDPGSCG-NH2; linker 2-9-16 via TBMB)
Ki [1, 9]: 0.363 µM

Structure (SMILES): CC(C)[C@@H]1NC(=O)CNC(=O)[C@@H]2CSCc3cc(cc(c3)CSC[C@@H](C(=O)NCC(N)=O)NC(=O)[C@H](CC(=O)O)NC(=O)CNC(=O)[C@@H]3CCCN3C(=O)[C@H](CC(=O)O)NC1=O)CSC[C@H](NC(=O)[C@H](C)N)C(=O)N[C@@H](CC(N)=O)C(=O)N[C@@H](CO)C(=O)N[C@@H](CCCCN)C(=O)N[C@@H](Cc1ccccc1)C(=O)N[C@@H](CO)C(=O)NCC(=O)N2 [UK975] (H-ACNSKFSGCGVDPGDCG-NH2; linker 2-9-16 via TBMB)
Ki [1, 9]: 0.874 µM

Structure (SMILES): CC(C)[C@@H]1NC(=O)CNC(=O)[C@@H]2CSCc3cc(cc(c3)CSC[C@@H](C(=O)NCC(N)=O)NC(=O)[C@H](CC(=O)O)NC(=O)[C@H](CO)NC(=O)[C@@H]3CCCN3C(=O)[C@H](CC(=O)O)NC1=O)CSC[C@H](NC(=O)[C@H](C)N)C(=O)N[C@@H](CC(N)=O)C(=O)N[C@@H](CO)C(=O)N[C@@H](CCCCN)C(=O)N[C@@H](Cc1ccccc1)C(=O)N[C@@H](CO)C(=O)NCC(=O)N2 [UK976] (H-ACNSKFSGCGVDPSDCG-NH2; linker 2-9-16 via TBMB)
Ki [1, 9]: 0.119 ± 0.0009 µM

Structure (SMILES): CC(C)[C@@H]1NC(=O)CNC(=O)[C@@H]2CSCc3cc(cc(c3)CSC[C@@H](C(=O)NCC(N)=O)NC(=O)[C@H](CCC(=O)O)NC(=O)CNC(=O)[C@@H]3CCCN3C(=O)[C@H](CC(=O)O)NC1=O)CSC[C@H](NC(=O)[C@H](C)N)C(=O)N[C@@H](CC(N)=O)C(=O)N[C@@H](CO)C(=O)N[C@@H](CCCCN)C(=O)N[C@@H](Cc1ccccc1)C(=O)N[C@@H](CO)C(=O)NCC(=O)N2 [UK977] (H-ACNSKFSGCGVDPGECG-NH2; linker 2-9-16 via TBMB)
Ki [1, 9]: 0.157 ± 0.0011 µM

Compounds with a lower Ki [1, 9], results first:

Ki [1, 9]: 0.072 ± 0.0007 µM | Ki [3]: 1.7 µM
Structure (SMILES): CC(C)[C@@H]1NC(=O)CNC(=O)[C@@H]2CSCc3cc(cc(c3)CSC[C@@H](C(=O)NCC(N)=O)NC(=O)[C@H](CCC(=O)O)NC(=O)[C@H](CO)NC(=O)[C@@H]3CCCN3C(=O)[C@H](CC(=O)O)NC1=O)CSC[C@H](NC(=O)[C@H](C)N)C(=O)N[C@@H](CC(N)=O)C(=O)N[C@@H](CO)C(=O)N[C@@H](CCCCN)C(=O)N[C@@H](Cc1ccccc1)C(=O)N[C@@H](CO)C(=O)NCC(=O)N2 [UK978] (H-ACNSKFSGCGVDPSECG-NH2; linker 2-9-16 via TBMB)

Ki [1, 9]: 0.0153 µM
Structure (SMILES): CC(C)[C@@H]1NC(=O)[C@H](Cc2ccccc2)NC(=O)[C@H](CCCNC(=N)N)NC(=O)[C@H](CO)NC(=O)[C@@H](NC(=O)[C@H](C)N)CSCc2cc3cc(c2)CSC[C@@H](C(=O)NCC(N)=O)NC(=O)[C@@H]2CCCN2C(=O)CNC(=O)CNC(=O)[C@H](CCCNC(=N)N)NC(=O)CNC(=O)[C@H](CCCNC(=N)N)NC(=O)[C@H](CSC3)NC(=O)[C@H](CC(=O)O)NC(=O)[C@H]([C@@H](C)O)NC1=O [UK973] (H-ACSRFVTDCRGRGGPCG-NH2; linker 2-9-16 via TBMB)

Ki [1, 9]: 0.0148 µM
Structure (SMILES): CC(C)[C@@H]1NC(=O)[C@H](Cc2c[nH]c3ccccc23)NC(=O)[C@H](CCCNC(=N)N)NC(=O)[C@H](CO)NC(=O)[C@@H](NC(=O)[C@H](C)N)CSCc2cc3cc(c2)CSC[C@@H](C(=O)NCC(N)=O)NC(=O)[C@@H]2CCCN2C(=O)CNC(=O)CNC(=O)[C@H](CCCNC(=N)N)NC(=O)CNC(=O)[C@H](CCCNC(=N)N)NC(=O)[C@H](CSC3)NC(=O)[C@H](CC(=O)O)NC(=O)[C@H]([C@@H](C)O)NC1=O [UK972] (H-ACSRWVTDCRGRGGPCG-NH2; linker 2-9-16 via TBMB)

Ki ([1]; pH 7.4, Z-Gly-Gly-Arg-AMC 50 μM, read-out: Ki ± S.E.): 0.004 ± 0.001 µM | Ki [1, 9]: 0.0043 ± 0.0001 µM | Ki [2]: > 1000 µM | Ki [3]: > 1000 µM | Ki [4]: > 1000 µM | Ki [5]: > 1000 µM | Ki [6]: > 1000 µM | Ki [7]: > 1000 µM | Ki [8]: > 1000 µM
Structure (SMILES): CC(C)[C@@H]1NC(=O)[C@H](Cc2ccccc2)NC(=O)[C@H](CCCNC(=N)N)NC(=O)[C@H](CO)NC(=O)[C@@H](NC(=O)[C@H](C)N)CSCc2cc3cc(c2)CSC[C@@H](C(=O)NCC(N)=O)NC(=O)[C@@H]2CCCN2C(=O)CNC(=O)CNC(=O)[C@H](CCCNC(=N)N)NC(=O)CNC(=O)[C@H](CCCNC(=N)N)NC(=O)[C@H](CSC3)NC(=O)[C@H](CC(=O)O)NC(=O)[C@H](C(C)C)NC1=O [UK970] (H-ACSRFVVDCRGRGGPCG-NH2; linker 2-9-16 via TBMB)
